Results from patent publication US10564164B2, “Fluorescent probe, singlet oxygen detection agent, and singlet oxygen detection method” (Osaka University, priority 2014, dated 2020).

Assays:
[1] = Fluorescence change after singlet oxygen generated chemically by NaOCl and H2O2; format: physicochemical; conditions: for fluorescence depending on concentration of singlet oxygen: NaClO and H2O2, DMSO:methanol:tris buffer 1:49:50, 5 μM
Experimental: Further, singlet oxygen was introduced into Si-DMA using a chemical catalyst. More specifically, singlet oxygen was introduced using 10 mM NaOCl and 10 mM H2O2. In this case as well, a spectral change similar to that in FIG. 1 was observed. […] The black arrow in FIG. 4a) and the red arrow in FIG. 4b) respectively show a loss of the anthracene structure, and an increase in the fluorescence of Si-DMA. The fluorescence increased about 10 times by 10-minute incubation using NaOCl and H2O2. By introducing a greater amount of singlet oxygen, more Si-DMA is expected to change into Si-DMEP.
The measurement was performed by generating singlet oxygen using NaClO and H2O2 in a solution containing DMSO:methanol:tris buffer agent=1:49:50 (Si-DMA concentration=5 μM).

HeLa cells = experiment: Selectivity of photosensitizer: intracellular singlet oxygen detection with Si-DMA; format: cell-based; conditions: 25 nM Si-DMA, 640 nm, 0.6 W/cm2
Experimental: Subsequently, a quick protocol provided by Molecular Probe® for introducing CellROX Green was followed. Using diluted Si-DMA and Si-Me, incubation was performed for 30 minutes to two hours by an experiment. To introduce a photosensitizer, 150 μg/mL of 5-aminolevulinic acid (5-ALA) or 10 LM TMPyP4 were incubated for four hours and 24 hours, respectively. As a result, as previously reported, the conversion of 5-ALA into protoporphyrin IX (PpIX) in the mitochondria was confirmed by the fluorescence luminescence of PpIX.
A KillerRed vector was expressed in accordance with a general Lipofectamine® 2000 (Invitrogen) protocol. More specifically, 2×10^5 Hela cells were subcultured in a 35-mm glass bottom dish. The cells reached about 50% confluent in the next day.
Subsequently, a mixed solution of Lipofectamine reagent and DNA vector was obtained by mixing 6 μL Lipofectamine® 2000 with 7 μL pKillerRed-dMitovector ([…], Evrogen, catalog No. FP964) in an Opti-MEM solution (Gibco). Thereafter, the resulting solution was incubated for 20 minutes at room temperature. 300 μL of the mixed solution was added to a growth medium, and incubated for 24 hours. The expression of KillerRed was confirmed by monitoring KillerRed fluorescence using a wide-view microscope. […]
Further, on the night before the treatment, 0.2×10^6 HeLa cells were seeded on a 35-mm dish, and pKillerRed-dMito vector (Evrogen) was introduced using Lipofectaimine®2000 (Invitrogen®), followed by 24-hour incubation as described above, thereby preparing HeLa cells containing […]. […] Light irradiation was performed for 30 seconds simultaneously at 0.5 W/cm^2 and 0.6 W/cm^2 using a 640-/532-nm laser (Coherent) and a wide-view fluorescence microscope system mounted in an IX81 inverted microscope (Olympus Corporation). […]
Further, in this Experiment Example, 60-second light irradiation was performed using three kinds of photosensitizers, and an average number of pseudo colors appeared in the photo and an increase thereof were measured. […]

[2] = Fluorescence quantum yield in various solvents in the absence of singlet oxygen; format: physicochemical
Experimental: (§1) Further, in the in vitro measurement, unless otherwise specified, all bulk spectrum measurements were performed in a phosphate buffered saline (PBS) having a pH of 7.5 without Ca and Mg or spectral grade methanol. The absorption spectrum and fluorescence spectrum in the ground state were measured using the Shimadzu UV-3100 and Horiba FluoroMax-4, respectively. The bulk irradiation was performed using a xenon light source (LAX-C100, Asahi Spectra Co., Ltd.) and a wavelength filter (BA510-550, Olympus Corporation).
As is clear from the above, fluorescence was hardly observed in the absence of singlet oxygen, (Φfl=0.01; in methanol), and the excitation of silicon-rhodamine was cancelled due to photoinduced electron transfer caused by the anthracene structure. The fluorescence in the absence of singlet oxygen also depended on the type of solvent. The fluorescence intensity decreases when a polar solvent is used, thereby inhibiting erroneous signals.

[3] = Fluorescence/absorption spectrum of probe with TMPyP4 under light irradiation (photosensitised singlet oxygen); format: physicochemical; conditions: for increase of fluorescence intensity: 50 μM Si-DMA, 5 μM TMPyP4, 50-minute irradiation 510-550 nm, 0.07 W/cm2
Experimental: as §1
The concentration of Si-DMA was 50 μM, and the concentration of TMPyP4 was 5 μM. The light irradiation was performed using a 510- to 550-nm wavelength ray at an intensity of 0.07 W/cm^2 under magnetic stirring so as to generate singlet oxygen.
In FIGS. 1a) and 1c), the black arrows denote changes in absorption by peroxidation (solid line) of the anthracene structure and disaggregation of hydrogen aggregate (broken line).
Subsequently, Si-DMA was reacted with singlet oxygen, thereby forming Si-DMEP; as a result, photoinduced electron transfer was inhibited, thereby increasing the fluorescence intensity (Φfl=0.17). In methanol, the fluorescence intensity increased about 18 times (in methanol), and about 22 times (in PBS) (FIGS. 1b) and 1d); red), and a loss of the anthracene structure was observed (FIG. 1a); black arrow).

## Cc1c2ccccc2c(C)c2cc(C3=C4C=CC(=[N+](C)C)C=C4[Si](C)(C)c4cc(N(C)C)ccc43)ccc12 [Si-DMA]
[1]; 10 mM NaOCl and 10 mM H2O2, 10-minute incubation
  increase of fluorescence: about 10 times
[1]; aggregate
  fluorescence depending on concentration of singlet oxygen: increase in fluorescence in proportion to the concentration of singlet oxygen
[1]; monomer
  fluorescence depending on concentration of singlet oxygen: increase in fluorescence in proportion to the concentration of singlet oxygen
HeLa cells; HeLa cells with PpIX (150 μg/mL 5-aminolevulinic acid, 4 h)
  time to increase in fluorescence in the vicinity of the perinuclear region: ≤ 10 s
HeLa cells; HeLa cells with PpIX as photosensitizer
  color rendering: clear color rendering was accomplished
[2]; in DMSO
  Φfl (fluorescence quantum yield): 0.008
[2]; in acetone
  Φfl (fluorescence quantum yield): 0.010
[2]; in benzene
  Φfl (fluorescence quantum yield): 0.034
[2]; in chloroform
  Φfl (fluorescence quantum yield): 0.010
[2]; in methanol
  Φfl (fluorescence quantum yield): 0.01
[2]; in toluene
  Φfl (fluorescence quantum yield): 0.030
[3]; after 900 seconds
  stability (color fading) under light irradiation: color fading was not observed
[3]; in PBS
  increase of fluorescence intensity: about 22 times
[3]; in methanol
  increase of fluorescence intensity: about 18 times
[3]; in the absence of TMPyP4
  change of fluorescence on light irradiation: did not increase
